The values below come from patent US8637537B2, “Serine/threonine kinase inhibitors” (Genentech, Inc., priority 2011, dated 2014).

For this assay, the target named is T1, human recombinant GST-PAK1-KD protein (Homo sapiens, UniProt Q13153).
T1 construct: residues #249-545 of human PAK1, UniProtKP/Swiss Q13153; His6 (N); made in house; host or cells: Sf9 insect cells, pAcGP67 baculovirus expression vector
As to the kind of experiment: GST-PAK1-KD (kinase domain) biochemical assay, microfluidic mobility shift. Conditions: PAK1 Ki class, read-out: Ki.

Structures can show the parent of a compound that is named as a salt. Where two headings read alike, the source gives them in different places.

T1 sequence (Q13153 249-545): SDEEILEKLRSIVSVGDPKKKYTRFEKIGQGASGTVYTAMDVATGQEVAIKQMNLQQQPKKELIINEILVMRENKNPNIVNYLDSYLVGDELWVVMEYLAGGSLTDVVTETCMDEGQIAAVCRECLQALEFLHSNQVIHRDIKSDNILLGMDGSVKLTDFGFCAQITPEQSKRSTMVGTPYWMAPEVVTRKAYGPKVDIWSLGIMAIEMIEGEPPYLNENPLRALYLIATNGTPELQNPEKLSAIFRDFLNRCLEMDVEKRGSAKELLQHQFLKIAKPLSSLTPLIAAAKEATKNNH

For the compound `c1cc(CNc2nccc(Nc3cc(C4CCCO4)[nH]n3)n2)c2cc[nH]c2c1` (stereo not drawn) [I-119, N^2-((1H-indol-4-yl)methyl)-N^4-(5-(tetrahydrofuran-2-yl)-1H-pyrazol-3-yl)pyrimidine-2,4-diamine], the inhibition constant Ki (Table I) fell in the range of 250 to 1000 nM.

As to `Fc1cnc(NCc2cccc3[nH]ccc23)nc1Nc1cc(C2CC2)[nH]n1` [I-120], the Ki (Table I) is 50 to 250 nM.

Turning to `Cc1cc(Nc2ccnc(N[C@@H](C)c3ccc4[nH]cnc4c3)n2)n[nH]1` [I-121, (S)—N^2-(1-(1H-benzo[d]imidazol-5-yl)ethyl)-N^4-(5-methyl-1H-pyrazol-3-yl)pyrimidine-2,4-diamine], the Ki (Table I) fell in the range of 250 to 1000 nM.

Take `Cc1ccc2[nH]ccc2c1CNc1nccc(Nc2cc(C3CC3)[nH]n2)n1` [I-122, N^4-(5-Cyclopropyl-1H-pyrazol-3-yl)-N^2-((5-methyl-1H-indol-4-yl)methyl)pyrimidine-2,4-diamine]: the Ki (Table I) is 50 to 250 nM.

For the compound `COc1c(CNc2nccc(Nc3cc(C4CC4)[nH]n3)n2)ccc2[nH]cnc12` [II-1, N^4-(5-Cyclopropyl-1H-pyrazol-3-yl)-N^2-[(4-methoxy-1H-benzimidazol-5-yl)methyl]-pyrimidine-2,4-diamine], the Ki (Table II) was under 50 nM.

With `CN(Cc1ccc2[nH]cnc2c1Cl)c1nccc(Nc2cc(OCc3ccccc3)[nH]n2)n1` [II-3, N^4-(5-Benzyloxy-1H-pyrazol-3-yl)-N^2-[(4-chloro-1H-benzimidazol-5-yl)methyl]-N^2-methyl-pyrimidine-2,4-diamine], the inhibitory constant (Ki) (Table II) was under 50 nM.

For the compound `Clc1c(CNc2nccc(Nc3cc(C4COC4)[nH]n3)n2)ccc2[nH]cnc12` [II-4, N^2-[(4-chloro-1H-benzimidazol-5-yl)methyl]-N^4-[5-(oxetan-3-yl)-1H-pyrazol-3-yl]pyrimidine-2,4-diamine, formic acid salt], the Ki (Table II) was under 50 nM.

`CN(Cc1ccc2[nH]cnc2c1Cl)c1ncc(F)c(Nc2cc(C3COC3)[nH]n2)n1` [II-5, N^2-[(4-Chloro-1H-benzimidazol-5-yl)methyl]-5-fluoro-N^2-methyl-N^4-[5-(oxetan-3-yl)-1H-pyrazol-3-yl]pyrimidine-2,4-diamine]: under “Table II”, the Ki is under 50 nM.

As for `Clc1c(CNc2nccc(Nc3cc(OCC4CC4)[nH]n3)n2)ccc2[nH]cnc12` [II-6, N^2-(4-Chloro-1H-benzoimidazol-5-ylmethyl)-N4-(5-cyclopropylmethoxy-1H-pyrazol-3-yl)-pyrimidine-2,4-diamine], under “Table II”, the Ki is under 50 nM.

For `CCc1c(CNc2nccc(Nc3cc(C4CC4)[nH]n3)n2)ccc2[nH]cnc12` [II-7, N^4-(5-Cyclopropyl-1H-pyrazol-3-yl)-N^2-[(4-ethyl-1H-benzimidazol-5-yl)methyl]pyrimidine-2,4-diamine], where the note is “Table II”, the Ki was under 50 nM.

Take `Cc1c(CNc2ncc(F)c(Nc3cc(C4CC4)[nH]n3)n2)ccc2[nH]cnc12` [II-8, N^4-(5-Cyclopropyl-1H-pyrazol-3-yl)-5-fluoro-N^2-[(4-methyl-1H-benzimidazol-5-yl)methyl]pyrimidine-2,4-diamine]: the Ki (Table II) was in the range of 50 to 250 nM.

In the case of `c1cc(CNc2nccc(Nc3cc(C4COC4)[nH]n3)n2)c2cc[nH]c2c1` [II-9, N^2-(1H-indol-4-ylmethyl)-N^4-[5-(oxetan-3-yl)-1H-pyrazol-3-yl]pyrimidine-2,4-diamine], the Ki (Table II) lay in the range of 50 to 250 nM.

With `c1cncc(CN(Cc2cccc3[nH]ccc23)c2nccc(Nc3cc(C4CC4)[nH]n3)n2)c1` [II-10, N^4-(5-Cyclopropyl-1H-pyrazol-3-yl)-N^2-(1H-indol-4-ylmethyl)-N^2-(3-pyridylmethyl)pyrimidine-2,4-diamine], under “Table II”, the Ki fell in the range of 50 to 250 nM.

Take `Cc1n[nH]c2cc(Cl)cc(CNc3nccc(Nc4cc(C5CC5)[nH]n4)n3)c12` [II-12, N^2-((6-Chloro-3-methyl-1H-indazol-4-yl)methyl)-N^4-(5-cyclopropyl-1H-pyrazol-3-yl)pyrimidine-2,4-diamine]: under “Table II”, the Ki is under 50 nM.

In the case of `Cc1cc(CNc2nccc(Nc3cc(C4CC4)[nH]n3)n2)c2cn[nH]c2c1` [II-13, N^4-(5-Cyclopropyl-1H-pyrazol-3-yl)-N^2-((6-methyl-1H-indazol-4-yl)methyl)pyrimidine-2,4-diamine], under “Table II”, the Ki was under 50 nM.

The term Ki denotes a measure of affinity in units of concentration, obtained from inhibition or displacement.
